Assay results: US10988477B2 (Merck Patent GmbH, priority 2018, dated 2021)

What was measured:
[1] = target: GCN2 kinase (Homo sapiens, UniProt Q9P2K8); assay: GCN2 enzyme inhibition assay (Transcreener ADP2 fluorescence polarization); type: biochemical; settings: Enzyme activity for compounds of Formula IV; Ki(app), 280 μM ATP, 25° C.
How it was run: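 Human GCN2 (4 nM) preincubated 10 min with compound (0–8 μM) and 200 μM (RS)7 peptide in Tris-HCl pH 7.5, NaCl, MgCl2, DTT. Reaction started with 280 μM ATP, run 1 h at 25 °C. ADP detected by Transcreener fluorescence polarization. IC50 and Ki(app) fitted by tight-binding algorithm.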

[2] = target: intracellular GCN2 (phosphorylation of the GCN2 substrate eIF2α) (Homo sapiens, UniProt Q9P2K8); assay: GCN2 cellular inhibition assay (AlphaScreen SureFire P-eIF2α Ser51, borrelidin-treated U2OS cells); type: cell-based; settings: compounds of Formula IV; biomarker assay, phosphorylated eIF2α Ser51 in borrelidin-treated U2OS cells
intracellular GCN2 (phosphorylation of the GCN2 substrate eIF2α), sequence (Q9P2K8 whole entry): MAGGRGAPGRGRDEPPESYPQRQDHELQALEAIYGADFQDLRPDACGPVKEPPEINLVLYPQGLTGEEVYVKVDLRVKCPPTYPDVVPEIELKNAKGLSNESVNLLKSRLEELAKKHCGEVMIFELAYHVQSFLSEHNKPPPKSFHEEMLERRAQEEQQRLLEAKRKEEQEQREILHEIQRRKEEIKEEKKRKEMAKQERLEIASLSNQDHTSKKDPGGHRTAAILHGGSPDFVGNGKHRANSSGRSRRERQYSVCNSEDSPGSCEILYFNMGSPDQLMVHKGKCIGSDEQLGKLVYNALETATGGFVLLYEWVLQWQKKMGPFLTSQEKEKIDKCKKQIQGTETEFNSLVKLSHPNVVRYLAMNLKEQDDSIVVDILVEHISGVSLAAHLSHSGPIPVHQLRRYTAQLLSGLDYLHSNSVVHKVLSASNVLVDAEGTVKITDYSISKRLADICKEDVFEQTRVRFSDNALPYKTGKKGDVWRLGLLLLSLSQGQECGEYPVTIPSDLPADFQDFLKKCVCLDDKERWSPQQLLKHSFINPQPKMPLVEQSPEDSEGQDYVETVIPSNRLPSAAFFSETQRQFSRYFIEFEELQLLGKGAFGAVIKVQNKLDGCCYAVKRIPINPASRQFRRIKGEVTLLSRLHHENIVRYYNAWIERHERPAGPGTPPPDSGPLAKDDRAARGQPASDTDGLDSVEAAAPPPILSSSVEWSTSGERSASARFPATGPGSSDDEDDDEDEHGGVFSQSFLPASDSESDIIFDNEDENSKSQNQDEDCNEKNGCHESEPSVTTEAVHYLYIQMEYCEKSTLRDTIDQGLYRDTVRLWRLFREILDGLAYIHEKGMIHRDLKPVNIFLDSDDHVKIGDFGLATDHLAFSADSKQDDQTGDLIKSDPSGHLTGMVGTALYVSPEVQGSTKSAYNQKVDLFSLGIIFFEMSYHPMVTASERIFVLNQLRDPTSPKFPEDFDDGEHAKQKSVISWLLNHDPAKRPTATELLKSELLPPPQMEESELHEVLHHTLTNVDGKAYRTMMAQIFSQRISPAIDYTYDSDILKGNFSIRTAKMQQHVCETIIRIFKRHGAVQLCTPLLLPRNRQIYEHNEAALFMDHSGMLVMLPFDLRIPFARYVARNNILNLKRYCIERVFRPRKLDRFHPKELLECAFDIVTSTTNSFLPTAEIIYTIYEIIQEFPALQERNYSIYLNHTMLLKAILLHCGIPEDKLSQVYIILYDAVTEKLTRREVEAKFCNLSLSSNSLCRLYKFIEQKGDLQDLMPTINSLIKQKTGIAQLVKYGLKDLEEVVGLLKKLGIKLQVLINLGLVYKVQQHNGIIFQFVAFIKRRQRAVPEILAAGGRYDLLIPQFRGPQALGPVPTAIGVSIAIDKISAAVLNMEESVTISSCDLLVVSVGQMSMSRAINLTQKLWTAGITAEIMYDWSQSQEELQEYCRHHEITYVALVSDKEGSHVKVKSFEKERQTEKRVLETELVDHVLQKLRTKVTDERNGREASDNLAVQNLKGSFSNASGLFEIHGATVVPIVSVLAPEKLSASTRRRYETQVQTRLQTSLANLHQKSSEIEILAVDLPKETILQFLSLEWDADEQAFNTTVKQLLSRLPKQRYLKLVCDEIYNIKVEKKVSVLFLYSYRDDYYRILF
How it was run: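 U2OS cells, adhered overnight, received compounds in 4-fold serial dilutions from 40 μM final, then 10 μM borrelidin for 1 h at 37 °C. Lysates were read by AlphaScreen for phospho-eIF2α Ser51; percent inhibition was set against borrelidin-only wells.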

GCN2 kinase, sequence (Q9P2K8 whole entry): as above

Structure (SMILES) | Ki [1] | IC50 [2]
C[C@H]1CN(c2ccnc(-c3cnc4cnc(C(F)(F)F)cn34)n2)C[C@@H](CNS(C)(=O)=O)C1(F)F [IV-17, N-(((3S,5S)-4,4-Difluoro-5-methyl-1-(2-(6-(trifluoromethyl)imidazo[1,2-a]pyrazin-3-yl)pyrimidin-4-yl)piperidin-3-yl)methyl)methanesulfonamide] | 100 to 1000 nM | > 5000 nM
N#Cc1cn2c(-c3nccc(N4CCOC(c5cn[nH]c5)C4)n3)cnc2cn1 (stereo not shown) [IV-18, 3-(4-(2-(1H-Pyrazol-4-yl)morpholino)pyrimidin-2-yl)imidazo[1,2-a]pyrazine-6-carbonitrile] | < 10 nM | 500 to 5000 nM
Brc1cn2c(-c3nccc(N4CCOC(c5cn[nH]c5)C4)n3)cnc2cn1 (stereo not shown) [IV-19, 4-(2-(6-Bromoimidazo[1,2-a]pyrazin-3-yl)pyrimidin-4-yl)-2-(1H-pyrazol-4-yl)morpholine] | < 10 nM | < 500 nM
Cc1cn2c(-c3nccc(N4CCOC(c5cn[nH]c5)C4)n3)cnc2cn1 (stereo not shown) [IV-20, 4-(2-(6-Methylimidazo[1,2-a]pyrazin-3-yl)pyrimidin-4-yl)-2-(1H-pyrazol-4-yl)morpholine] | 10 to 100 nM | 500 to 5000 nM
C[C@H]1CN(c2ccnc(-c3cnc4cnc(C(F)F)cn34)n2)C[C@@H](CNS(C)(=O)=O)C1(F)F [IV-21, N-(((3S,5S)-1-(2-(6-(Difluoromethyl)imidazo[1,2-a]pyrazin-3-yl)pyrimidin-4-yl)-4,4-difluoro-5-methylpiperidin-3-yl)methyl)methanesulfonamide] | 100 to 1000 nM | > 5000 nM
CC(=O)N1CCN(c2ccnc(-c3cnc4cnc(C(F)F)cn34)n2)CC1 [IV-22, 1-(4-(2-(6-(Difluoromethyl)imidazo[1,2-a]pyrazin-3-yl)pyrimidin-4-yl)piperazin-1-yl)ethan-1-one] | 100 to 1000 nM | > 5000 nM
CS(=O)(=O)NC[C@@H]1CN(c2ccnc(-c3cnc4cnc(C(F)F)cn34)n2)CCO1 [IV-23, (S)—N-((4-(2-(6-(Difluoromethyl)imidazo[1,2-a]pyrazin-3-yl)pyrimidin-4-yl)morpholin-2-yl)methyl)methanesulfonamide] | 100 to 1000 nM | > 5000 nM
CC(=O)N1CCN(c2ccnc(-c3cnc4cnc(C(F)(F)F)cn34)n2)CC1 [IV-24, 1-(4-(2-(6-(Trifluoromethyl)imidazo[1,2-a]pyrazin-3-yl)pyrimidin-4-yl)piperazin-1-yl)ethan-1-one] | 100 to 1000 nM | > 5000 nM
COc1cn2c(-c3nccc(N4CCN(C(C)=O)CC4)n3)cnc2cn1 [IV-25, 1-(4-(2-(6-Methoxyimidazo[1,2-a]pyrazin-3-yl)pyrimidin-4-yl)piperazin-1-yl)ethan-1-one] | 100 to 1000 nM | > 5000 nM
CC(=O)N1CCN(c2ccnc(-c3cnc4cnc(CO)cn34)n2)CC1 [IV-26, 1-(4-(2-(6-(Hydroxymethyl)imidazo[1,2-a]pyrazin-3-yl)pyrimidin-4-yl)piperazin-1-yl)ethan-1-one] | 100 to 1000 nM | > 5000 nM
CS(=O)(=O)NCC1CCN(c2ccnc(-c3cnc4cnc(Br)cn34)n2)C1 (stereo not shown) [IV-27, N-((1-(2-(6-Bromoimidazo[1,2-a]pyrazin-3-yl)pyrimidin-4-yl)pyrrolidin-3-yl)methyl)methanesulfonamide] | 10 to 100 nM | 500 to 5000 nM
FC(F)c1cn2c(-c3nccc(N4CCOC(c5cn[nH]c5)C4)n3)cnc2cn1 (stereo not shown) [IV-28, 4-(2-(6-(Difluoromethyl)imidazo[1,2-a]pyrazin-3-yl)pyrimidin-4-yl)-2-(1H-pyrazol-4-yl)morpholine] | 10 to 100 nM | 500 to 5000 nM
CS(=O)(=O)NC[C@H]1CCCN(c2ccnc(-c3cnc4cnc(C(F)F)cn34)n2)C1 [IV-29, (S)—N-((1-(2-(6-(Difluoromethyl)imidazo[1,2-a]pyrazin-3-yl)pyrimidin-4-yl)piperidin-3-yl)methyl)methanesulfonamide] | 100 to 1000 nM | > 5000 nM
CC(=O)N1CCN(c2ccnc(-c3cnc4cnc(C(=O)O)cn34)n2)CC1 [IV-30, 3-(4-(4-Acetylpiperazin-1-yl)pyrimidin-2-yl)imidazo[1,2-a]pyrazine-6-carboxylic acid] | 100 to 1000 nM | > 5000 nM
CC(=O)N1CCN(c2ccnc(-c3cnc4cnc(Br)cn34)n2)CC1 [IV-32, 1-(4-(2-(6-Bromoimidazo[1,2-a]pyrazin-3-yl)pyrimidin-4-yl)piperazin-1-yl)ethan-1-one] | 100 to 1000 nM | 500 to 5000 nM
CC(=O)N1CCN(c2ccnc(-c3cnc4cnc(C5CC5)cn34)n2)CC1 [IV-33, 1-(4-(2-(6-Cyclopropylimidazo[1,2-a]pyrazin-3-yl)pyrimidin-4-yl)piperazin-1-yl)ethan-1-one] | 100 to 1000 nM | > 5000 nM
CS(=N)(=O)CC1CCCN(c2ccnc(-c3cnc4cnc(C(F)(F)F)cn34)n2)C1 (stereo not shown) [IV-34, Imino(methyl)((1-(2-(6-(trifluoromethyl)imidazo[1,2-a]pyrazin-3-yl)pyrimidin-4-yl)piperidin-3-yl)methyl)-λ^6-sulfanone] | 100 to 1000 nM | > 5000 nM
CC(=O)N1CCN(c2ccnc(-c3cnc4cnc(Cl)cn34)n2)CC1 [IV-35, 1-(4-(2-(6-Chloroimidazo[1,2-a]pyrazin-3-yl)pyrimidin-4-yl)piperazin-1-yl)ethan-1-one] | 100 to 1000 nM | > 5000 nM
CC(=O)N1CCN(c2ccnc(-c3cnc4cnc(C(N)=O)cn34)n2)CC1 [IV-36, 3-(4-(4-Acetylpiperazin-1-yl)pyrimidin-2-yl)imidazo[1,2-a]pyrazine-6-carboxamide] | 100 to 1000 nM | > 5000 nM
C=Cc1cn2c(-c3nccc(N4CCN(C(C)=O)CC4)n3)cnc2cn1 [IV-37, 1-(4-(2-(6-Vinylimidazo[1,2-a]pyrazin-3-yl)pyrimidin-4-yl)piperazin-1-yl)ethan-1-one] | 100 to 1000 nM | > 5000 nM
NC(=O)c1cn2c(-c3nccc(N4CCOC(c5cn[nH]c5)C4)n3)cnc2cn1 (stereo not shown) [IV-38, 3-(4-(2-(1H-Pyrazol-4-yl)morpholino)pyrimidin-2-yl)imidazo[1,2-a]pyrazine-6-carboxamide] | 10 to 100 nM | > 5000 nM
c1cn2c(-c3nccc(N4CCOC(c5cn[nH]c5)C4)n3)cnc2cn1 (stereo not shown) [IV-39, 4-(2-(Imidazo[1,2-a]pyrazin-3-yl)pyrimidin-4-yl)-2-(1H-pyrazol-4-yl)morpholine] | 100 to 1000 nM | > 5000 nM
FC(F)(F)c1cn2c(-c3ccnc(N4CCOC(c5cn[nH]c5)C4)n3)cnc2cn1 (stereo not shown) [IV-40, 2-(1H-Pyrazol-4-yl)-4-(4-(6-(trifluoromethyl)imidazo[1,2-a]pyrazin-3-yl)pyrimidin-2-yl)morpholine] | 10 to 100 nM | < 500 nM
NC(=O)NCC1CCCN(c2ccnc(-c3cnc4cnc(C(F)F)cn34)n2)C1 (stereo not shown) [IV-41, 1-((1-(2-(6-(Difluoromethyl)imidazo[1,2-a]pyrazin-3-yl)pyrimidin-4-yl)piperidin-3-yl)methyl)urea] | 100 to 1000 nM | > 5000 nM
NC(=O)C1CCCN(c2ccnc(-c3cnc4cnc(C(F)F)cn34)n2)C1 (stereo not shown) [IV-42, 1-(2-(6-(Difluoromethyl)imidazo[1,2-a]pyrazin-3-yl)pyrimidin-4-yl)piperidine-3-carboxamide] | 10 to 100 nM | 500 to 5000 nM
CS(=O)(=O)NCCC1CCCN(c2ccnc(-c3cnc4cnc(C(F)F)cn34)n2)C1 (stereo not shown) [IV-43, N-(2-(1-(2-(6-(Difluoromethyl)imidazo[1,2-a]pyrazin-3-yl)pyrimidin-4-yl)piperidin-3-yl)ethyl)methanesulfonamide] | 100 to 1000 nM | > 5000 nM
